Where a name gives a salt, the structure may show the parent alone.
System: HCT116
Conditions: 72 h
In short: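 Four-parameter Hill fits gave IC50 and maximal efficacy. The data were CellTiter-Glo luminescence readings in HCT116 cells, normalized so that vehicle was 0% and positive control was -100%, with pattern correction afterwards.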

IC50 cell viability (ICRF193 0 nM) | IC50 cell viability (ICRF193 200 nM) | Compound
> 45.8 µM | > 45.8 µM | CCc1ccc(CCOc2ccc(CC3SC(=O)NC3=O)cc2)nc1 (centres undefined) [Pioglitazone hydrochloride]
> 45.8 µM | > 45.8 µM | NC(=O)c1ncn([C@@H]2O[C@H](CO)[C@@H](O)[C@H]2O)c1O [Mizoribine]
> 45.8 µM | > 45.8 µM | Nc1ncnc2c1ncn2[C@@H]1O[C@H](CO)[C@@H](O)[C@H]1O [Adenosine]
> 45.8 µM | > 45.8 µM | C=C[C@H]1CN2CC[C@H]1C[C@@H]2[C@@H](O)c1ccnc2ccc(OC)cc12 [Quinidine hydrochloride monohydrate]
> 45.8 µM | > 45.8 µM | O=C([O-])C(O)[C@H](O)[C@@H](O)[C@H](O)[C@H](O)CO.O=C([O-])C(O)[C@H](O)[C@@H](O)[C@H](O)[C@H](O)CO.[Ca+2] (some centres undefined) [CALCIUM GLUCEPTATE]
> 45.8 µM | > 45.8 µM | CC(C)(C)c1nnc(NS(=O)(=O)c2ccccc2)s1 [Glybuzole]
> 45.8 µM | > 45.8 µM | CCCCOC(=O)C(=O)Nc1cccc(-c2nnn[nH]2)c1 [Tazanolast]
> 45.8 µM | > 45.8 µM | NC(=O)OCC(O)COc1ccc(Cl)cc1 (centres undefined) [Chlorphensin carbamate]
> 45.8 µM | > 45.8 µM | Cc1ccccc1C(=O)Nc1ccc(C(=O)N2CCCC(O)c3cc(Cl)ccc32)c(C)c1 (centres undefined) [Tolvaptan]
> 45.8 µM | > 45.8 µM | COc1ccc(-c2noc(CC(=O)O)c2-c2ccc(OC)cc2)cc1 [Mofezolac]
> 45.8 µM | > 45.8 µM | O=C(O)Cc1sc(-c2ccccc2)nc1-c1ccc(Cl)cc1 [Fentiazac]
> 45.8 µM | > 45.8 µM | CN(C)CCN(Cc1cccs1)c1ccccn1 [Methapyrilene hydrochloride]
> 45.8 µM | > 45.8 µM | CCCCCCCCCCCCCCCCCCCCCCCCCCCCO [1-Octacosanol]
> 45.8 µM | > 45.8 µM | COc1ccc2cc([C@H](C)C(=O)O)ccc2c1 [Naproxen sodium]
> 45.8 µM | > 45.8 µM | CCCS(=O)(=O)Nc1ccc(F)c(C(=O)c2c[nH]c3ncc(-c4ccc(Cl)cc4)cc23)c1F [Vemurafenib]
> 45.8 µM | > 45.8 µM | O=C(O)[C@@H](S)[C@H](S)C(=O)O [(2R,3R)-2,3-Dimercaptosuccinic acid]
> 45.8 µM | > 45.8 µM | O=C1O[C@H](CO)[C@@H](O)[C@H](O)[C@H]1O [Gluconolactone]
> 45.8 µM | > 45.8 µM | CC(=O)OC[C@H]1O[C@@](COC(C)=O)(O[C@H]2O[C@H](COC(C)=O)[C@@H](OC(C)=O)[C@H](OC(C)=O)[C@H]2OC(C)=O)[C@@H](OC(C)=O)[C@@H]1OC(C)=O [Sucrose octaacetate]
> 45.8 µM | > 45.8 µM | O=c1[nH]c2ccccc2n1CCN1CCN(c2cccc(C(F)(F)F)c2)CC1 [FLIBANSERIN]
> 45.8 µM | > 45.8 µM | Cc1ccnc2c1NC(=O)c1cccnc1N2C1CC1 [Nevirapine]
> 45.8 µM | > 45.8 µM | CN1C2=CC(=O)/C(=N\NC(N)=O)C=C2CC1S(=O)(=O)O (centres undefined) [Carbazochrome sodium sulfonate]
> 45.8 µM | > 45.8 µM | CC1CC(OC(=O)C(O)c2ccccc2)CC(C)(C)C1 (centres undefined) [Cyclandelate]
> 45.8 µM | > 45.8 µM | CC(=O)OCC(=O)NCCCOc1cccc(CN2CCCCC2)c1 [Roxatidine acetate hydrochloride]
> 45.8 µM | > 45.8 µM | CN1CCN2c3ncccc3Cc3ccccc3C2C1 (centres undefined) [Mirtazapine]
> 45.8 µM | > 45.8 µM | CC12CCC(CC1)C(C)(C)O2 [1,8-Cineol]

IC50 cell viability (ICRF193 0 nM) | IC50 cell viability (ICRF193 200 nM) | Compound
> 45.8 µM | > 45.8 µM | O=C(O)CC/C=C\CC[C@@H]1[C@@H](N2CCCCC2)[C@@H](O)C[C@@H]1OCc1ccc(-c2ccccc2)cc1 [Vapiprost hydrochloride]
> 45.8 µM | > 45.8 µM | COc1ccc(CNCC(O)COc2ccc3[nH]c(=O)ccc3c2)cc1OC (centres undefined) [Toborinone]
> 45.8 µM | > 45.8 µM | CC[N+](C)(C)c1cccc(O)c1 [Edrophonium chloride]
> 45.8 µM | > 45.8 µM | CCN1C(=O)c2ccccc2C1Nc1ccc(OCCN2CCCCC2)cc1 (centres undefined) [Etomidoline]
> 45.8 µM | > 45.8 µM | COc1ccnc(C[S+]([O-])c2nc3cc(OC(F)F)ccc3[nH]2)c1OC (centres undefined) [Pantoprazole]
> 45.8 µM | > 45.8 µM | COC(=O)N[C@H](C(=O)N1CCC[C@H]1c1nc(-c2ccc3c(c2)O[C@@H](c2ccccc2)n2c-3cc3cc(-c4c[nH]c([C@@H]5CCCN5C(=O)[C@@H](NC(=O)OC)C(C)C)n4)ccc32)c[nH]1)C(C)C [Elbasvir]
> 45.8 µM | > 45.8 µM | Cc1c(F)cc2c(=O)c(C(=O)O)cn3c2c1CCC3C (centres undefined) [Ibafloxacine]
> 45.8 µM | > 45.8 µM | CN1CC(=O)N2[C@H](c3ccc4c(c3)OCO4)c3[nH]c4ccccc4c3C[C@@H]2C1=O [Tadalafil]
> 45.8 µM | > 45.8 µM | CC(C)(CO)[C@@H](O)C(=O)NCCCO [Dexpanthenol]
> 45.8 µM | > 45.8 µM | C/C=C1\[C@H]2C=C(C)C[C@]1(N)c1ccc(=O)[nH]c1C2 [Huperzine A]
> 45.8 µM | > 45.8 µM | CN(C)CCOC(c1ccc(Cl)cc1)c1ccccn1 (centres undefined) [Carbinoxamine maleate]
> 45.8 µM | > 45.8 µM | CCCN1CC(NS(=O)(=O)N(CC)CC)CC2Cc3c(O)cccc3CC21 (centres undefined) [Quinagolide (hydrochloride)]
> 45.8 µM | > 45.8 µM | CC1=C(C/C=C(\C)CCC[C@H](C)CCC[C@H](C)CCCC(C)C)C(=O)c2ccccc2C1=O [Phytonadione]
> 45.8 µM | > 45.8 µM | O=C(COCCOCCOCC(=O)Nc1c(I)cc(I)c(C(=O)O)c1I)Nc1c(I)cc(I)c(C(=O)O)c1I [Biliscopin]
> 45.8 µM | > 45.8 µM | Cc1ncc([N+](=O)[O-])n1CCO [Metronidazole]
> 45.8 µM | > 45.8 µM | CCCCC(C)(O)C/C=C/[C@H]1[C@H](O)CC(=O)[C@@H]1CCCCCCC(=O)OC (mixture of isomers) [Misoprostol]
> 45.8 µM | > 45.8 µM | CCOC(=O)[C@H](CCc1ccccc1)N[C@H]1CCc2ccccc2N(CC(=O)O)C1=O [Benazepril]
> 45.8 µM | > 45.8 µM | C[C@]1(Cn2ccnn2)[C@H](C(=O)O)N2C(=O)C[C@H]2S1(=O)=O [Tazobactam sodium]
> 45.8 µM | > 45.8 µM | O=CCCCC=O [Glutaraldehyde]
> 45.8 µM | > 45.8 µM | C[C@@H]1C[C@H]2[C@@H]3CCC4=CC(=O)C=C[C@]4(C)[C@@]3(F)[C@@H](O)C[C@]2(C)[C@@]1(O)C(=O)CO [Dexamethasone]
> 45.8 µM | > 45.8 µM | NC(=O)[C@H]1O[C@@H](O)[C@H](O)[C@@H](O)[C@@H]1O [Glucuronamide]
> 45.8 µM | > 45.8 µM | c1cc(CN2CCCNCCNCCCNCC2)ccc1CN1CCCNCCNCCCNCC1 [Plerixafor hydrochloride]
> 45.8 µM | > 45.8 µM | CC[N+](CC)(CC)CCOC(=O)C(C1CCCC1)C1CCCC1 [Diponium bromide]
> 45.8 µM | > 45.8 µM | CC(C)COC(=O)c1ccc(N)cc1 [Isocaine]

Compound | IC50 cell viability (ICRF193 0 nM) | IC50 cell viability (ICRF193 200 nM)
COP(=S)(OC)Oc1ccc(S(N)(=O)=O)cc1 [Cythioate] | > 45.8 µM | > 45.8 µM
CCc1cc2c(s1)-n1c(C)nnc1CN=C2c1ccccc1Cl [Etizolam] | > 45.8 µM | > 45.8 µM
C[N+]1(C)[C@@H]2C[C@@H](OC(=O)[C@H](CO)c3ccccc3)C[C@H]1[C@@H]1O[C@@H]12 [Scopolamine methylbromide] | > 45.8 µM | > 45.8 µM
CCCCCCCCCCC(=O)O[C@H]1CC[C@H]2[C@@H]3CCC4=CC(=O)CC[C@]4(C)[C@H]3CC[C@]12C [Testosterone (undecanoate)] | > 45.8 µM | > 45.8 µM
CNC(C)(C)Cc1ccccc1 [Mephentermine hemisulfate] | > 45.8 µM | > 45.8 µM
NC(=O)CN1CCCC1=O [Piracetam] | > 45.8 µM | > 45.8 µM
N[C@@H]1C[C@H]1c1ccccc1 [Tranylcypromine hydrochloride] | > 45.8 µM | > 45.8 µM
CCOC(=O)c1ccccc1C(=O)OCC [Diethyl phthalate] | > 45.8 µM | > 45.8 µM
CCNC1(c2cccs2)CCCCC1=O (centres undefined) [Tiletamine Hydrochloride] | > 45.8 µM | > 45.8 µM
Cc1ccc2c(c1)[C@]13CCCC[C@@H]1[C@H](C2)N(C)CC3 [Dimemorfan phosphate] | > 45.8 µM | > 45.8 µM
COc1ccc(CN(C(=O)[C@@H](N)Cc2c(C)cc(C(N)=O)cc2C)[C@@H](C)c2ncc(-c3ccccc3)[nH]2)cc1C(=O)O [Eluxadoline] | > 45.8 µM | > 45.8 µM
CCN(C)C(C)C(O)c1ccccc1 (centres undefined) [Etafedrine hydrochloride] | > 45.8 µM | > 45.8 µM
CCCCC[C@@H](O)[C@H]1C(=O)O[C@H](C)[C@@H](O)/C=C/C=C/C=C/C=C/C=C(\C)[C@@H](O)[C@H](O)[C@H](O)C[C@H](O)C[C@H](O)C[C@H](O)C[C@H](O)C[C@@H]1O [Pentamycin] | > 45.8 µM | > 45.8 µM
